# According to PMC7037731, “Synthesis, Anticancer Activity, and Preliminary Pharmacokinetic Evaluation of 4,4-Disubstituted Curcuminoid 2,2-bis(Hydroxymethyl)Propionate Derivatives” (Molecules, 2020):
# Where two headings read alike, the source gives them in different places.
# Tests used:
# [1] = system: HCT-116 colon tumor xenograft; assay: In vivo antitumor activity, HCT-116 colon tumor xenograft bearing nude mice; parameters: species or system nu/nu mice; conditions: 30 mg/kg i.p. QOD, positive control
# Method: The therapeutic effect of 2 was evaluated on HCT-116 colon tumor xenograft bearing nude mice. The oral administration of 2 at doses of 50, 100, or 150 mg/kg bw per day were performed after tumors reached approximately 100 mm^3 and continued for 30 consecutive days. 5-Fluorouracil treatment (30 mg/kg bw, i.p., QOD) was used as a positive control. […] There was a clear dose- and time-dependent inhibitory effect on tumor size in the other two groups, in which at 50 and 150 mg/kg doses the volume of the HCT-116 colon tumor was reduced to 73% and 40% of the control, respectively (Figure 2). The body weight of the mice was recorded prior to dosing every 3 d, and the average body weight of each group is depicted in Figure 3. Otherwise, they were monitored for visible signs of toxicity and behavioral changes 1 h after each administration.
# Male nu/nu mice (5 weeks old) from National Laboratory Animal Center (Taipei, Taiwan) were maintained under the procedures and guidelines provided by the Institutional Animal Care and Use Committee of the National Health Research Institutes (Taipei, Taiwan). All experiments were supervised under the Institutional Animal Care and Use Committee, China Medical University, Taichung, Taiwan with a protocol number ([…]-2018-278). HCT-116 colon cancer cells (5 × 10^6 cells per mouse) were suspended in 0.1 mL of Matrigel solution (50% v/v Matrigel in PBS) and inoculated into the mammary fat pads of the mice. When the tumor size reached 100 mm^3, the tumor-bearing mice were randomly divided into four groups for treating with vehicle (5% ethanol and 10% tween 80 in 85% saline, 0.1 mL) and 2 (p.o. 50, 100 and 150 mg/kg/day body weight) respectively. Compounds was administered via oral route daily for 30 days. 5-Fluorouracil-treated group (i.p. 30 mg/kg) is the positive control. Tumor size and mouse body weight were measured once every 3 days, and tumor volume (mm^3) was calculated using the equation: length × (width)^2 × 0.5. At the end of experiments, mice were sacrificed.
# MDA-MB-231 = assay: MTT anti-proliferative assay, MDA-MB-231; type: cell-based; conditions: Homo sapiens
# Method: (§1) These compounds, along with all newly synthesized compounds, were screened for anti-proliferative activity against the same TNBC and colon cancer cell lines.
# (§2) Cell viability was evaluated by measuring the reduction in MTT to yield blue formazan. Cells were cultured in 96-well plates, allowed to attach overnight, and then treated with compounds. After treatment, MTT solution (1 mg/mL) was added to each well, and plates were incubated for another 2 h. Medium was removed, blue formazan was dissolved in DMSO, and the absorbance was read at 570 nm by Multiskan Go spectrophotometer (Thermo Scientific, Madison, WI, USA).
# HCT-116 = assay: MTT anti-proliferative assay, HCT-116; type: cell-based; conditions: Homo sapiens
# Method: as §1, §2
# [2] = 48 h treatment, MTT, mean ± SD of at least three experiments, read-out: IC50 (M)/ 48 h MDA-MB-231
# [3] = 48 h treatment, MTT, mean ± SD of at least three experiments, read-out: IC50 (M)/ 48 h HCT-116
# [4] = anti-proliferative screening, read-out: IC50 MDA-MB-231
# [5] = anti-proliferative screening, read-out: IC50 HCT-116
SMILES,tumor-growth inhibition [1],IC50 (MDA-MB-231; [2]),IC50 (HCT-116; [3]),melting point,IC50 (MDA-MB-231; [4]),IC50 (HCT-116; [5])
"O=c1[nH]cc(F)c(=O)[nH]1 [5-Fluorouracil, reference compound]",40%,,,,,
CCC(CC)(C(=O)/C=C/c1ccc(OC(=O)C(C)(CO)CO)c(OC)c1)C(=O)/C=C/c1ccc(OC(=O)C(C)(CO)CO)c(OC)c1 [Compound 3],,3.02e-06 ± 1.5e-07 M,1.93e-06 ± 1e-08 M,,,
"CCC(CC)(C(=O)/C=C/c1ccc(O)c(OC)c1)C(=O)/C=C/c1ccc(O)c(OC)c1 [Compound 3m, (1E,6E)-4,4-Diethyl-1,7-bis(4-hydroxy-3-methoxyphenyl)hepta-1,6-diene-3,5-dione]",,9.12e-06 ± 4e-07 M,8.18e-06 ± 5.7e-07 M,114 to 115 °C,,
COc1cc(/C=C/C(=O)C(Cc2ccccc2)(Cc2ccccc2)C(=O)/C=C/c2ccc(OC(=O)C(C)(CO)CO)c(OC)c2)ccc1OC(=O)C(C)(CO)CO [Compound 4],,2.45e-06 ± 2.4e-07 M,7.66e-06 ± 6.1e-07 M,,,
"COc1cc(/C=C/C(=O)C(Cc2ccccc2)(Cc2ccccc2)C(=O)/C=C/c2ccc(O)c(OC)c2)ccc1O [Compound 4m, (1E,6E)-4,4-Dibenzyl-1,7-bis(4-hydroxy-3-methoxyphenyl)hepta-1,6-diene-3,5-dione]",,3.65e-05 ± 1.66e-06 M,9.4e-06 ± 2e-08 M,134 to 135 °C,,
C#CCC(CC#C)(C(=O)/C=C/c1ccc(OC(=O)C(C)(CO)CO)c(OC)c1)C(=O)/C=C/c1ccc(OC(=O)C(C)(CO)CO)c(OC)c1 [Compound 5],,5.87e-06 ± 1e-07 M,5.81e-06 ± 2.3e-07 M,,,
"C#CCC(CC#C)(C(=O)/C=C/c1ccc(O)c(OC)c1)C(=O)/C=C/c1ccc(O)c(OC)c1 [Compound 5m, (1E,6E)-1,7-bis(4-Hydroxy-3-methoxyphenyl)-4,4-di(prop-2-yn-1-yl)hepta-1,6-diene-3,5-dione]",,3.1e-06 ± 1.5e-07 M,1.38e-06 ± 6e-08 M,,,
"C=CCC(CC=C)(C(=O)/C=C/c1ccc(OC(=O)C(C)(CO)CO)c(OC)c1)C(=O)/C=C/c1ccc(OC(=O)C(C)(CO)CO)c(OC)c1 [Compound 6, [(1E,6E)-4,4-Diallyl-3,5-dioxohepta-1,6-diene-1,7-diyl]bis(2-methoxy-4,1-phenylene) bis[3-hydroxy-2-(hydroxymethyl)-2-methylpropanoate]]",,3.13e-06 ± 5.4e-07 M,9.2e-07 ± 6e-08 M,195 to 197 °C,,
"C=CCC(CC=C)(C(=O)/C=C/c1ccc(O)c(OC)c1)C(=O)/C=C/c1ccc(O)c(OC)c1 [Compound 6m, (1E,6E)-4,4-Diallyl-1,7-bis(4-hydroxy-3-methoxyphenyl)hepta-1,6-diene-3,5-dione]",,6.88e-06 ± 3.6e-07 M,4.4e-06 ± 5.3e-07 M,,,
"COc1cc(/C=C/C(=O)C(COC(C)=O)(COC(C)=O)C(=O)/C=C/c2ccc(OC(=O)C(C)(CO)CO)c(OC)c2)ccc1OC(=O)C(C)(CO)CO [Compound 10, [(1E,6E)-4,4-bis(Acetoxymethyl)-3,5-dioxohepta-1,6-diene-1,7-diyl]bis(2-methoxy-4,1-phenylene) bis[3-hydroxy-2-(hydroxymethyl)-2-methylpropanoate]]",,6.55e-06 ± 4e-08 M,6.53e-06 ± 1e-08 M,194 to 196 °C,,
"COCC(COC)(C(=O)/C=C/c1ccc(OC(=O)C(C)(CO)CO)c(OC)c1)C(=O)/C=C/c1ccc(OC(=O)C(C)(CO)CO)c(OC)c1 [Compound 11, [(1E,6E)-4,4-bis(Methoxymethyl)-3,5-dioxohepta-1,6-diene-1,7-diyl]bis(2-methoxy-4,1-phenylene) bis[3-hydroxy-2-(hydroxymethyl)-2-methylpropanoate]]",,8.49e-05 ± 1.67e-06 M,6.91e-05 ± 3.11e-06 M,187 to 188 °C,,
"COc1ccc(/C=C/C(=O)C(CO)(CO)C(=O)/C=C/c2ccc(OC)c(OC)c2)cc1OC [Compound 12, (1E,6E)-1,7-bis(3,4-Dimethoxyphenyl)-4,4-bis(hydroxymethyl)hepta-1,6-diene-3,5-dione]",,5.35e-05 ± 3.45e-06 M,5.8e-05 ± 6e-07 M,174 to 176 °C,,
"COc1ccc(/C=C/C(=O)C(COC(=O)C(C)(CO)CO)(COC(=O)C(C)(CO)CO)C(=O)/C=C/c2ccc(OC)c(OC)c2)cc1OC [Compound 14, 2,2-bis[(E)-3-(3,4-Dimethoxyphenyl)acryloyl]propane-1,3-diylbis[3-hydroxy-2-(hydroxymethyl)-2-methylpropanoate]]",,5.74e-05 ± 2.06e-06 M,4.01e-05 ± 1.61e-06 M,> 300 °C,,
"CCCC(CCC)(C(=O)/C=C/c1ccc(O)c(OC)c1)C(=O)/C=C/c1ccc(O)c(OC)c1 [Compound 15, (1E,6E)-1,7-bis(4-Hydroxy-3-methoxyphenyl)-4,4-dipropylhepta-1,6-diene-3,5-dione]",,1.82e-05 ± 5.3e-07 M,1.07e-05 ± 1.63e-06 M,137 to 139 °C,,
"CCCCC(CCCC)(C(=O)/C=C/c1ccc(O)c(OC)c1)C(=O)/C=C/c1ccc(O)c(OC)c1 [Compound 16, (1E,6E)-4,4-Dibutyl-1,7-bis(4-hydroxy-3-methoxyphenyl)hepta-1,6-diene-3,5-dione]",,> 0.0001 M,6.7e-05 ± 3.18e-06 M,144 to 146 °C,,
"COc1cc(/C=C/C(=O)C(C)(C)C(=O)CCc2ccc(O)c(OC)c2)ccc1O [Compound 18, (E)-1,7-bis(4-Hydroxy-3-methoxyphenyl)-4,4-dimethylhept-1-ene-3,5-dione]",,,,,3.648e-05 ± 3.4e-07 M,9.64e-06 ± 2.1e-07 M
"COc1cc(CCC(=O)C(C)(C)C(=O)CCc2ccc(O)c(OC)c2)ccc1O [Compound 19, 1,7-bis(4-Hydroxy-3-methoxyphenyl)-4,4-dimethylheptane-3,5-dione]",,,,,≥ 0.0001 M,≥ 0.0001 M
"COc1cc(CCC(=O)C(C)(C)C(O)CCc2ccc(O)c(OC)c2)ccc1O (stereo not drawn) [Compound 20, 5-hydroxy-1,7-bis(4-hydroxy-3-methoxyphenyl)-4,4-dimethylheptan-3-one]",,,,,≥ 0.0001 M,≥ 0.0001 M
"COc1cc(CCC(O)C(C)(C)C(O)CCc2ccc(O)c(OC)c2)ccc1O (stereo not drawn) [Compound 21, 1,7-bis(4-Hydroxy-3-methoxyphenyl)-4,4-dimethylheptane-3,5-diol]",,,,,≥ 0.0001 M,≥ 0.0001 M
"COc1cc(/C=C/C(=O)CC(=O)/C=C/c2ccc(O)c(OC)c2)ccc1O [Curcumin, (1E,6E)-1,7-bis(4-hydroxy-3-methoxyphenyl)hepta-1,6-diene-3,5-dione]",,2.21e-05 ± 2.97e-06 M,2.63e-05 ± 1.38e-06 M,,,
